Reference: ChEMBL document CHEMBL3745704, “Novel nonsecosteroidal VDR ligands with phenyl-pyrrolyl pentane skeleton for cancer therapy” (Eur J Med Chem, 2016)

What was measured:
[1] = Antipoliferative activity against human PC3 cells after 48 hrs by MTT assay; format: functional, cell-based; conditions: PC-3, 48 h
[2] = test system: HepG2; experiment: Antipoliferative activity against human HepG2 cells after 48 hrs by MTT assay; format: functional, cell-based; conditions: HepG2, 48 h
[3] = Antipoliferative activity against human Caco2 cells after 48 hrs by MTT assay; format: functional, cell-based; conditions: Caco-2, 48 h
[4] = Cytotoxicity against human L02 cells after 48 hrs by MTT assay; format: cell-based; conditions: L02, 48 h
[5] = test system: MCF7; experiment: Antipoliferative activity against human MCF7 cells after 48 hrs by MTT assay; format: functional, cell-based; conditions: MCF7, 48 h
[6] = target: T1, Vitamin D3 receptor (Homo sapiens, UniProt P11473); experiment: Binding affinity to vitamin D3 receptor (unknown origin) after 4 hrs using fluormone VDR red by polar screen VDR competitor assay
T1 sequence (P11473 whole entry): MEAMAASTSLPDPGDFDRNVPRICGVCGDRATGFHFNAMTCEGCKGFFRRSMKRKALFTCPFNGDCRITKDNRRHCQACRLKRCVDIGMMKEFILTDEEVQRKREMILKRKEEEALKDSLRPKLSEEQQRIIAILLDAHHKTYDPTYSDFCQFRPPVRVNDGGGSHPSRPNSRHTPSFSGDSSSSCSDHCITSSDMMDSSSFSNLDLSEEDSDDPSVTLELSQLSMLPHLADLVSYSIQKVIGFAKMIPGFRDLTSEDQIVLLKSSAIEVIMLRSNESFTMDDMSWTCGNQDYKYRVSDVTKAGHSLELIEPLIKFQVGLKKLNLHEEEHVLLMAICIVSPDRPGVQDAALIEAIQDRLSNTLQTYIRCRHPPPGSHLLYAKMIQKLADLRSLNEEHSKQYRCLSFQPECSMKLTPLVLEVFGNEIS

[7] = test system: Rattus norvegicus; experiment: Toxicity in rat assessed as hypercalcemic activity at 30 mg/kg/day administered for 7 days; format: organism-based; conditions: in vivo, 168 h
[8] = test system: Rattus norvegicus; experiment: Toxicity in rat assessed as hypercalcemic activity at 10 mg/kg/day administered for 7 days; format: organism-based; conditions: in vivo, 168 h
[9] = test system: Rattus norvegicus; experiment: Toxicity in rat assessed as hypercalcemic activity at 0.5 mg/kg/day administered for 7 days; format: organism-based; conditions: in vivo, 168 h
[10] = test system: Rattus norvegicus; experiment: Toxicity in rat assessed as serum calcium level at 0.5 ug/kg/day administered for 7 days (reference value: 7.25 mg/dl); format: organism-based; conditions: in vivo, 0.0005 mg/kg, 168 h

Row | IC50 [2] [nM] | IC50 [5] [nM] | IC50 [6] [nM] | Structure (SMILES) | IC50 [1] [nM] | IC50 [3] [nM] | IC50 [4] [nM] | Activity [7] | Activity [8] | Activity [9] | Activity [10] [mg/dL]
1 | 2300 | 520 | – | CCn1c(C(=O)NCCN(C)C)ccc1C(CC)(CC)c1ccc(OCC(=O)C(C)(C)C)c(C)c1 | 2300 | 1600 | 2500 | – | – | – | –
2 | 17000 | 25400 | – | CCn1c(C(=O)N(C)CC(=O)O)ccc1C(CC)(CC)c1ccc(OCC(O)C(C)(C)C)c(C)c1 (configuration not stated) | 23900 | 31900 | 32600 | – | – | – | –
3 | 960 | 340 | – | CCn1c(C(=O)NCCCN(C)C)ccc1C(CC)(CC)c1ccc(OCC(=O)C(C)(C)C)c(C)c1 | 1600 | 1400 | 670 | – | – | – | –
4 | 23200 | > 50000 | 5230 | CCn1c(C(=O)NCC(OC)OC)ccc1C(CC)(CC)c1ccc(OCC(O)C(C)(C)C)c(C)c1 (configuration not stated) | 14600 | > 50000 | 22200 | – | – | – | –
5 | 180 | 75 | 1010 | CCn1c(C(=O)NCCN)ccc1C(CC)(CC)c1ccc(OCC(=O)C(C)(C)C)c(C)c1 | 480 | 1900 | 2500 | – | – | – | –
6 | 180 | 530 | 863 | CCN(CC)CCCNC(=O)c1ccc(C(CC)(CC)c2ccc(OCC(=O)C(C)(C)C)c(C)c2)n1CC | 1800 | 1000 | 2300 | – | – | – | –
7 | 620 | 690 | – | CCN(CC)CCNC(=O)c1ccc(C(CC)(CC)c2ccc(OCC(=O)C(C)(C)C)c(C)c2)n1CC | 30 | 1600 | 2500 | – | – | – | –
8 | 1290 | 2070 | 1190 | CCn1c(C(=O)NCCCN2CCOCC2)ccc1C(CC)(CC)c1ccc(OCC(O)C(C)(C)C)c(C)c1 (configuration not stated) | 7.9 | 5900 | 810 | Non-toxic | Non-toxic | Non-toxic | –
9 | – | – | 9250 | CCOc1ccc(NC(=O)c2ccc(C(CC)(CC)c3ccc(OCC(O)C(C)(C)C)c(C)c3)n2CC)cc1 (configuration not stated) | – | – | – | – | – | – | –
10 | 176 | 5.9 | 194 | CCn1c(C(=O)NCCN)ccc1C(CC)(CC)c1ccc(OCC(O)C(C)(C)C)c(C)c1 (configuration not stated) | 940 | 1000 | 2400 | Non-toxic | Non-toxic | Non-toxic | –
11 | 360 | 490 | 197 | CCn1c(C(=O)NCCCN(C)C)ccc1C(CC)(CC)c1ccc(OCC(O)C(C)(C)C)c(C)c1 (configuration not stated) | 3100 | 1900 | 470 | – | – | – | –
12 | > 50000 | > 50000 | – | C=CCN(C)C(=O)c1ccc(C(CC)(CC)c2ccc(OCC(O)C(C)(C)C)c(C)c2)n1CC (configuration not stated) | 25900 | > 50000 | 6300 | – | – | – | –
13 | 127 | 2000 | 389 | CC[C@@H](C)[C@H](NC(=O)c1ccc(C(CC)(CC)c2ccc(OCC(O)C(C)(C)C)c(C)c2)n1CC)C(=O)O (some centres not stated) | 1900 | 3400 | 1400 | – | – | – | –
14 | 1600 | 5200 | 3520 | CCn1c(C(=O)NCCCN2CCOCC2)ccc1C(CC)(CC)c1ccc(OCC(=O)C(C)(C)C)c(C)c1 | 11 | 3600 | 310 | – | – | – | –
15 | 25200 | 28600 | – | CCn1c(C(=O)N(C)CC(=O)O)ccc1C(CC)(CC)c1ccc(OCC(=O)C(C)(C)C)c(C)c1 | 18400 | 35900 | 8700 | – | – | – | –
16 | 1100 | 190 | 71.1 | CCN(CC)CCCNC(=O)c1ccc(C(CC)(CC)c2ccc(OCC(O)C(C)(C)C)c(C)c2)n1CC (configuration not stated) | 2500 | 1800 | 2500 | – | – | – | –
17 | > 50000 | > 50000 | – | C#CC(C)OC(=O)c1ccc(C(CC)(CC)c2ccc(OCC(O)C(C)(C)C)c(C)c2)n1CC (configuration not stated) | 38200 | > 50000 | 23700 | – | – | – | –

The next lines start with the molecule.

Row | Structure (SMILES) | IC50 [2] [nM] | IC50 [5] [nM] | IC50 [6] [nM] | IC50 [1] [nM] | IC50 [3] [nM] | IC50 [4] [nM] | Activity [7] | Activity [8] | Activity [9] | Activity [10] [mg/dL]
18 | CCN(CC)CCNC(=O)c1ccc(C(CC)(CC)c2ccc(OCC(O)C(C)(C)C)c(C)c2)n1CC (configuration not stated) | 490 | 690 | – | 220 | 2310 | 2500 | – | – | – | –
19 | CCn1c(C(=O)N(CCC#N)CCC#N)ccc1C(CC)(CC)c1ccc(OCC(O)C(C)(C)C)c(C)c1 (configuration not stated) | 42000 | 480 | > 10000 | 7800 | 7100 | 1700 | – | – | – | –
20 | CCn1c(C(=O)Oc2ccc(CCO)cc2)ccc1C(CC)(CC)c1ccc(OCC(O)C(C)(C)C)c(C)c1 (configuration not stated) | > 50000 | > 50000 | – | 6300 | > 50000 | 22700 | – | – | – | –
21 | CCn1c(C(=O)N[C@@H](C)CO)ccc1C(CC)(CC)c1ccc(OCC(O)C(C)(C)C)c(C)c1 (some centres not stated) | 47600 | 2800 | – | 17500 | > 50000 | 17300 | Non-toxic | – | – | –
22 | CCn1c(C(=O)NCCN(C)C)ccc1C(CC)(CC)c1ccc(OCC(O)C(C)(C)C)c(C)c1 (configuration not stated) | 870 | 660 | – | 1630 | 1300 | 2600 | – | – | – | –
23 | C#CCNC(=O)c1ccc(C(CC)(CC)c2ccc(OCC(O)C(C)(C)C)c(C)c2)n1CC (configuration not stated) | > 50000 | > 50000 | > 10000 | 16200 | 39100 | 4400 | – | – | – | –
24 | CCOC(=O)CN(C)C(=O)c1ccc(C(CC)(CC)c2ccc(OCC(O)C(C)(C)C)c(C)c2)n1CC (configuration not stated) | > 50000 | 9200 | – | 25500 | 12200 | 10100 | – | – | – | –
25 | CCC(CC)(c1ccc(OCC(=O)C(C)(C)C)c(C)c1)c1ccc(OCC(=O)C(C)(C)C)c(C)c1 | > 50000 | 7800 | – | > 50000 | 16900 | 5100 | Non-toxic | – | – | –
26 | CC[C@@H](C)[C@H](NC(=O)c1ccc(C(CC)(CC)c2ccc(OCC(=O)C(C)(C)C)c(C)c2)n1CC)C(=O)O | 247 | 160 | 564 | 1600 | 4500 | 1500 | – | – | – | –
27 | CCn1c(C(=O)OCc2ccc(F)cc2)ccc1C(CC)(CC)c1ccc(OCC(O)C(C)(C)C)c(C)c1 (configuration not stated) | > 50000 | > 50000 | – | > 50000 | > 50000 | 14900 | – | – | – | –
28 | CCn1c(C(=O)N(C)CCC#N)ccc1C(CC)(CC)c1ccc(OCC(O)C(C)(C)C)c(C)c1 (configuration not stated) | > 50000 | > 50000 | – | 1700 | > 50000 | 14900 | – | – | – | –
29 | C=C1/C(=C\C=C2/CCC[C@]3(C)[C@@H]([C@H](C)CCCC(C)(C)O)CC[C@@H]23)C[C@@H](O)C[C@@H]1O [CALCITRIOL] | – | – | – | – | – | – | – | – | – | 13.11
